Experimental data from patent publication US20240352429A1, “AGENT FOR INDUCING VIRAL VECTOR PRODUCTION” (priority 2021, published 2024).

Tests used:
[1] = tested on: suspension HEK293 cells (FreeStyle 293F cell); type: cell-based; conditions: for titer of adeno-associated virus vector in the cell-derived sample, various cell growth inhibitors A: nocodazole 500 nM, benzimidazoles 50 μM, 5 μM, 500 nM, vinblastine sulfate, colcemid, taxanes 5 μM, 100 nM, FIG. 3 to 7
[2] = tested on: suspension HEK293 cells; test: Titer of adeno-associated virus vector (AAV2) by quantitative PCR after introducing linear covalently closed DNA (LCC DNA) with PEI; type: cell-based; conditions: for titer of adeno-associated virus vector from the cell-derived sample, LCC DNA: DMSO as solubilizer, nocodazole 500 nM added 1 minute after introduction, oxibendazole 50 μM, 5 μM, 500 nM, 50 nM, FIG. 11
Method: On the day of introduction of the nucleic acid into the cells, the suspension HEK293 cells were seeded in a 50-mL centrifuge tube equipped with a filter cap, with the number of cells being adjusted to 1×10^6 cells/mL (an amount of culture medium of 5 mL).
In the condition where a linear covalently closed DNA was used as the nucleic acid to be introduced into the cells, RC2_LCC_DNA (1 μg/μL, 4 μL, packaging plasmid DNA), Venus_LCC_DNA (1 μg/μL, 1 μL, vector plasmid DNA), Helper_LCC_DNA (1 μg/μL, 1 μL, helper plasmid DNA), and PEI MAX (1 μg/μL, 12 μL, Polysciences Inc.) as polyethylenimine (PEI) were mixed and left to stand in Opti-MEM (Thermo Fisher Scientific K.K.) for production of a LCC DNA-PEI mixed solution. Nucleic acids were introduced into the cells by adding the LCC DNA-PEI mixed solution to the cell culture medium. Thereafter, AAV2 was produced by culturing at 37° C. in the presence of 8% CO2 for 4 days.
Extraction and quantification of the adeno-associated virus vector were carried out by the same methods as in Example 1.
When the cell growth inhibitor A was oxibendazole (Tokyo Chemical Industry Co., Ltd.), DMSO was used as a solubilizer, and oxibendazole was added to the cell culture medium so that the final concentrations of oxibendazole were four kinds of concentrations, i.e., 50 μM, 5 μM, 500 nM, and 50 nM.

[3] = tested on: virus-like particles; conditions: known from Non Patent Literature 1; cited from earlier work
[4] = tested on: suspension HEK293 cells; test: Titer of adeno-associated virus vector (AAV2) produced with a bioreactor (400 mL culture medium), quantitative PCR; type: cell-based; conditions: nocodazole final 500 nM in DMSO, added 4 hours after introduction of the nucleic acid; vs w/o; FIG. 9
Method: On the day of introduction of a nucleic acid into the cells, the suspension HEK293 cells were seeded in a bioreactor (animal cell culture apparatus BCP, volume 1 L, ABLE Corporation), with the number of cells being adjusted to 1×10^6 cells/mL (in an amount of culture medium of 400 mL).
pRC2-mi342 (1 μg/μL, 240 μL, packaging plasmid DNA), pAAV-Venus (1 μg/μL, 80 μL, vector plasmid DNA), pHelper (1 μg/μL, 160 μL, helper plasmid DNA), and PEI MAX (1 μg/μL, 960 μL, Polysciences Inc.) as polyethylenimine (PEI) were mixed and left to stand in Opti-MEM (Thermo Fisher Scientific K.K.) for production of a double-stranded circular plasmid DNA-PEI mixed solution.
Nucleic acids were introduced into the cells by adding the double-stranded circular plasmid DNA-PEI mixed solution to the cell culture medium. Thereafter, AAV2 was produced by culturing at 37° C. in the presence of 8% CO2 for 4 days.
Four days after introduction of the nucleic acid into the cells, the supernatant and the cells were separated, PEG8000 (Sigma-Aldrich Co. LLC) was added to the supernatant obtained, and the adeno-associated virus vector was concentrated. Triton X-100 (Sigma-Aldrich Co. LLC) was added to the residual for cell lysis, and thereafter KANEKA Endonuclease (KANEKA CORPORATION) was added for degradation of DNA. […]
Quantification of the adeno-associated virus was performed by the same method as in Example 1.

[5] = added 4 hours after introduction of the nucleic acid, DMSO as solubilizer

Structure (SMILES): CC(=O)O[C@H]1C(=O)[C@@]2(C)[C@H]([C@H](OC(=O)c3ccccc3)[C@]3(O)C[C@H](OC(=O)[C@H](O)[C@@H](NC(=O)c4ccccc4)c4ccccc4)C(C)=C1C3(C)C)[C@]1(OC(C)=O)CO[C@@H]1C[C@@H]2O [paclitaxel]
- titer of adeno-associated virus vector in the cell-derived sample, various cell growth inhibitors A [1, 5]: improved

Structure (SMILES): COC(=O)Nc1nc2ccc(Sc3ccccc3)cc2[nH]1 [fenbendazole]
- titer of adeno-associated virus vector in the cell-derived sample, various cell growth inhibitors A [1, 5]: improved

Structure (SMILES): CC[C@]1(O)C[C@@H]2CN(CCc3c([nH]c4ccccc34)[C@@](C(=O)OC)(c3cc4c(cc3OC)N(C)[C@H]3[C@@](O)(C(=O)OC)[C@H](OC(C)=O)[C@]5(CC)C=CCN6CC[C@]43[C@@H]65)C2)C1 [vinblastine]
- titer of adeno-associated virus vector in the cell-derived sample, various cell growth inhibitors A [1, 5]: improved

Structure (SMILES): CCCOc1ccc2nc(NC(=O)OC)[nH]c2c1 [oxibendazole]
- titer of adeno-associated virus vector from the cell-derived sample, LCC DNA [2]: increased

Structure (SMILES): CCCSc1ccc2nc(NC(=O)OC)[nH]c2c1 [albendazole]
- titer of adeno-associated virus vector in the cell-derived sample, various cell growth inhibitors A [1, 5]: improved

Structure (SMILES): CC(=O)O[C@@]12CO[C@@H]1C[C@H](O)[C@@]1(C)C(=O)[C@H](O)C3=C(C)[C@@H](OC(=O)[C@H](O)[C@@H](NC(=O)OC(C)(C)C)c4ccccc4)C[C@@](O)([C@@H](OC(=O)c4ccccc4)[C@H]21)C3(C)C [docetaxel]
- titer of adeno-associated virus vector in the cell-derived sample, various cell growth inhibitors A [1, 5]: improved

Structure (SMILES): COC(=O)Nc1nc2ccc(C(=O)c3cccs3)cc2[nH]1 [nocodazole]
- productivity of virus-like particles [3]: reduces
- total titer of adeno-associated virus vector (cell-derived and supernatant-derived sample) at bioreactor scale [4]: reproduced
- titer of adeno-associated virus vector from the cell-derived sample, LCC DNA [2]: increased
- increase of the titer of adeno-associated virus vector (cell-derived sample), linear covalently closed DNA ([2]; nocodazole 500 nM in DMSO, added 1 minute after introduction of the nucleic acid, vs w/o, FIG. 10): fourteenfold
- titer of adeno-associated virus vector in the cell-derived sample, various cell growth inhibitors A [1, 5]: improved
- total titer of adeno-associated virus vector (cell-derived sample and supernatant-derived sample) ([1]; final concentration from 250 nM to 2 μM, DMSO as solubilizer, added 4 hours after introduction of the nucleic acid, 4 days culture, vs 0 nM (DMSO only), FIG. 1): improved
- effect of improving the titer of adeno-associated virus vector (cell-derived sample) compared with sodium valproate ([1]; nocodazole 500 nM in DMSO vs sodium valproate (VPA) 1, 2.5, 5, 10 or 12.5 mM in water, FIG. 8): larger
- increase of the titer of adeno-associated virus vector (cell-derived sample), double-stranded circular plasmid DNA ([1]; nocodazole 500 nM in DMSO, added 1 minute after introduction of the nucleic acid, pDNA, vs w/o, FIG. 10): eightfold
- titer of adeno-associated virus vector in the cell-derived sample, influence of timing of addition ([1]; nocodazole final 500 nM in DMSO, added between 24 hours before and 4 hours after introduction of the nucleic acid, vs DMSO only, FIG. 2): improved
